Assay results from patent US20090253712A1, “AQUEOUS SOLVENT SYSTEM FOR SOLUBILIZATION OF AZOLE COMPOUNDS” (SEMMELWEIS EGYETEM, priority 2008, published 2009).
In brackets after ≈: the same amount, converted by molar mass. Like-named read-outs stand apart in the source and are kept apart here.

Legend:
[1] = data from U.S. Pat. No. 6,383,471, cited from earlier work
[2] = Solubility tests of active agent in solvent systems; format: physicochemical; conditions: for solubility: thermodynamic from solid; for Solubility in the compositions of Table 5 (in words): 3% surfactant, 25% co-solvent and pH adjuster (pH 3.1); for Solubilized miconazole / ketoconazole / itraconazole ± S.D.: Table 5: 1.5% sodium taurocholeate + 1.5% polysorbate 80 + 15% ethanol + 10% propylene glycol + ammonium acetate pH 3.1
Method: General example for the solubility tests
Each of the solutions applied in the solubilization tests were prepared as follows (the specific amount of the components comes from the Tables below):
1. 0.05M ammonium acetate (as pH-adjuster) solution was prepared in a volumetric flask and the pH of this solution was set to pH 3.1 with glacial acetic acid.
2. The specific amount of co-solvent was measured into a beaker and the specific amount of the previously prepared 0.05M ammonium acetate solution was added. The pH of this solution was measured and set to pH 3.1 with glacial acetic acid.
3. The specific amount of surfactant was added to the solution.
4. This solvent system was vigorously shaken until complete homogenization of the solution was achieved.
5. Aliquot amount of this solvent system was measured and the specific amount of the active agent was added to the solution.
The Tables below define the composition of each solution tested and the amount of the active agent which could be solubilized by the applied solvent system.
The amount of the co-solvent is given in % by volume and the amount of the surfactant is given in % by weight in each table.

[3] = Stability on dilution with infusions; format: physicochemical; conditions: for Concentration of polysorbate 80 necessary to keep miconazole in solution on dilution: co-solvent 20% ethanol + ammonium acetate, pH 3.1, dilution to 200 ml with 5% dextrose or 0.9% sodium chloride infusions
Method: A composition called as “concentrate for infusion” should be diluted before administration to patients by a previously determined amount of usual infusion. The usual infusion is chosen preferably from the group of 5% dextrose infusion and 0.9% sodium chloride infusion. It is well known for a skilled person in the art that such a dilute should be stable for at least 48 hours. To reproduce the dilution scheme applied in the case of Monistat® (previously marketed as a concentrate for infusion containing miconazole), one of the compositions of the present invention was diluted with 5% dextrose infusion and 0.9% sodium chloride infusion. Based on the previous results a composition comprising of 0.1% polysorbate 80, 20% ethanol and ammonium acetate pH 3.1 was chosen for further investigation. […]

[4] = 3% polysorbate 80 + 25% ethanol + ammonium acetate pH 3.1, pH 3.1, aqueous with cosolvent or surfactant or cyclodextrin, Table 5: 3% polysorbate 80 + 25% ethanol + ammonium acetate pH 3.1, read-out: Solubilized miconazole / ketoconazole / itraconazole ± S.D.
[5] = aqueous with cosolvent or surfactant or cyclodextrin, Table 5: 1.5% sodium taurocholeate + 1.5% polysorbate 80 + 15% ethanol + 10% PEG 400 + ammonium acetate pH 3.1, read-out: Solubilized miconazole / ketoconazole / itraconazole ± S.D.
[6] = pH 3.1, aqueous with cosolvent or surfactant or cyclodextrin, Table 5: 1.5% sodium taurocholeate + 1.5% polysorbate 80 + 25% ethanol + ammonium acetate pH 3.1, read-out: Solubilized miconazole / ketoconazole / itraconazole ± S.D.
[7] = pH 3.1, aqueous with cosolvent or surfactant or cyclodextrin, Table 5: 3% polysorbate 80 + 15% ethanol + 10% PEG 400 + ammonium acetate pH 3.1, read-out: Solubilized miconazole / ketoconazole / itraconazole ± S.D.
[8] = pH 3.1, aqueous with cosolvent or surfactant or cyclodextrin, Table 5: 3% polysorbate 80 + 15% ethanol + 10% propylene glycol + ammonium acetate pH 3.1, read-out: Solubilized miconazole / ketoconazole / itraconazole ± S.D.

In the case of `CCC(C)n1ncn(-c2ccc(N3CCN(c4ccc(OCC5COC(Cn6cncn6)(c6ccc(Cl)cc6Cl)O5)cc4)CC3)cc2)c1=O` (centres unmarked) [itraconazole], the Solubilized itraconazole ([1]; solvent system of Example 27) is given as 85 mg/mL, the Solubilized itraconazole ([1]; solvent system of Example 28) is given as 50 mg/mL and the Solubilized itraconazole ([1]; solvent system of Example 29) is given as 50 mg/mL. For the same molecule, the Solubilized itraconazole ([1]; solvent system of Example 30) was 30 mg/mL, the Solubilized itraconazole ([1]; solvent system of Example 31) was 30 mg/mL and the solubility [2, 4] was 0.057 ± 0.005 mg/mL. The “Solubility in the compositions of Table 5 (in words)” value (“Solubility in the compositions” for short) [2] was “no substantial solubility”, the “Solubilized miconazole / ketoconazole / itraconazole ± S.D.” value [2] was 0.026 ± 0.001 mg/mL and the solubility [2, 5] was 0.04 ± 0.001 mg/mL. For the same molecule, the solubility [2, 6] was 0.04 ± 0.008 mg/mL, the solubility [2, 7] was 0.054 ± 0.002 mg/mL and the solubility [2, 8] was 0.04 ± 0.001 mg/mL.

`Clc1ccc(COC(Cn2ccnc2)c2ccc(Cl)cc2Cl)c(Cl)c1` (centres unmarked) [miconazole] gave a solubility ([2]; 0.05 M ammonium acetate in water, pH 3.1, aqueous buffer, 0.05 M ammonium acetate pH 3.1 in water, read-out: Solubilized miconazole ± S.D.) of 2.24 ± 0.36 mg/mL (≈ 5380 µM), a solubility ([2]; 0.05 M calcium gluconate in water, pH 3.1, aqueous buffer, 0.05 M calcium gluconate pH 3.1 in water, read-out: Solubilized miconazole ± S.D.) of 0.65 ± 0.06 mg/mL (≈ 1560 µM) and a solubility ([2]; 0.05 M potassium dihydrogen phosphate in water, pH 3.1, aqueous buffer, 0.05 M potassium dihydrogen phosphate pH 3.1 in water, read-out: Solubilized miconazole ± S.D.) of 0.77 ± 0.05 mg/mL (≈ 1850 µM). It also gave a solubility ([2]; 0.10% polysorbate 80 + 5% ethanol + ammonium acetate pH 3.1, pH 3.1, aqueous with cosolvent or surfactant or cyclodextrin, Table 3: 0.10% polysorbate 80 + 5% ethanol + ammonium acetate pH 3.1, read-out: Solubilized miconazole ± S.D.) of 2.39 ± 0.12 mg/mL, a solubility ([2]; 0.1% polysorbate 80 + 10% ethanol + ammonium acetate pH 3.1, pH 3.1, aqueous with cosolvent or surfactant or cyclodextrin, Table 3: 0.1% polysorbate 80 + 10% ethanol + ammonium acetate pH 3.1, read-out: Solubilized miconazole ± S.D.) of 4.52 ± 0.03 mg/mL and a solubility ([2]; 0.1% polysorbate 80 + 15% ethanol + ammonium acetate pH 3.1, pH 3.1, aqueous with cosolvent or surfactant or cyclodextrin, Table 3: 0.1% polysorbate 80 + 15% ethanol + ammonium acetate pH 3.1, read-out: Solubilized miconazole ± S.D.) of 10.8 ± 2.84 mg/mL. The solubility ([2]; 0.1% polysorbate 80 + 20% ethanol + ammonium acetate pH 3.1, pH 3.1, aqueous with cosolvent or surfactant or cyclodextrin, Table 3: 0.1% polysorbate 80 + 20% ethanol + ammonium acetate pH 3.1, read-out: Solubilized miconazole ± S.D.) was 35.1 ± 5.76 mg/mL, the solubility ([2]; 0.10% polysorbate 80 + 25% ethanol + ammonium acetate pH 3.1, pH 3.1, aqueous with cosolvent or surfactant or cyclodextrin, Table 2: 0.10% polysorbate 80 + 25% ethanol + ammonium acetate pH 3.1, read-out: Solubilized miconazole ± S.D.) was 36 ± 2.09 mg/mL and the solubility ([2]; 0.1% polysorbate 80 + 25% ethanol + ammonium acetate pH 3.1, pH 3.1, aqueous with cosolvent or surfactant or cyclodextrin, Table 3: 0.1% polysorbate 80 + 25% ethanol + ammonium acetate pH 3.1, read-out: Solubilized miconazole ± S.D.) was 36 ± 1.49 mg/mL. The solubility ([2]; 0.25% polysorbate 80 + 25% ethanol + ammonium acetate pH 3.1, pH 3.1, aqueous with cosolvent or surfactant or cyclodextrin, Table 2: 0.25% polysorbate 80 + 25% ethanol + ammonium acetate pH 3.1, read-out: Solubilized miconazole ± S.D.) was 34.4 ± 1.51 mg/mL, the solubility ([2]; 0.50% polysorbate 80 + 25% ethanol + ammonium acetate pH 3.1, pH 3.1, aqueous with cosolvent or surfactant or cyclodextrin, Table 2: 0.50% polysorbate 80 + 25% ethanol + ammonium acetate pH 3.1, read-out: Solubilized miconazole ± S.D.) was 44.72 ± 0.14 mg/mL and the solubility ([2]; 1.0% polysorbate 80 + 25% ethanol + ammonium acetate pH 3.1, pH 3.1, aqueous with cosolvent or surfactant or cyclodextrin, Table 2: 1.0% polysorbate 80 + 25% ethanol + ammonium acetate pH 3.1, read-out: Solubilized miconazole ± S.D.) was 42.6 ± 2.04 mg/mL. For the same molecule, the solubility ([2]; 2.0% polysorbate 80 + 25% ethanol + ammonium acetate pH 3.1, pH 3.1, aqueous with cosolvent or surfactant or cyclodextrin, Table 2: 2.0% polysorbate 80 + 25% ethanol + ammonium acetate pH 3.1, read-out: Solubilized miconazole ± S.D.) was 37.9 ± 1.86 mg/mL, the solubility ([2]; 3% polysorbate 20 in water, aqueous with cosolvent or surfactant or cyclodextrin, 3% polysorbate 20 in water, read-out: Solubilized miconazole ± S.D.) was 0.81 ± 0.07 mg/mL (≈ 1950 µM) and the solubility ([2]; 3% polysorbate 60 in water, aqueous with cosolvent or surfactant or cyclodextrin, 3% polysorbate 60 in water, read-out: Solubilized miconazole ± S.D.) was 1.42 ± 0.1 mg/mL (≈ 3410 µM). The solubility ([2]; 3.0% polysorbate 80 + 25% ethanol + ammonium acetate pH 3.1, pH 3.1, aqueous with cosolvent or surfactant or cyclodextrin, Table 2: 3.0% polysorbate 80 + 25% ethanol + ammonium acetate pH 3.1, read-out: Solubilized miconazole ± S.D.) was 38.9 ± 0.61 mg/mL, the solubility [2, 4] was 34.1 ± 2.95 mg/mL and the solubility ([2]; 3% polysorbate 80 in water, aqueous with cosolvent or surfactant or cyclodextrin, 3% polysorbate 80 in water, read-out: Solubilized miconazole ± S.D.) was 1.52 ± 0.09 mg/mL (≈ 3650 µM). The “Solubility in the compositions” value [2] was “remarkable solubility”, the solubility ([2]; 4.0% polysorbate 80 + 25% ethanol + ammonium acetate pH 3.1, pH 3.1, aqueous with cosolvent or surfactant or cyclodextrin, Table 2: 4.0% polysorbate 80 + 25% ethanol + ammonium acetate pH 3.1, read-out: Solubilized miconazole ± S.D.) was 43.3 ± 2.61 mg/mL and the solubility ([2]; 5.0% polysorbate 80 + 25% ethanol + ammonium acetate pH 3.1, pH 3.1, aqueous with cosolvent or surfactant or cyclodextrin, Table 2: 5.0% polysorbate 80 + 25% ethanol + ammonium acetate pH 3.1, read-out: Solubilized miconazole ± S.D.) was 42.7 ± 0.81 mg/mL. It also gave a solubility ([2]; 25% ethanol in water, aqueous with cosolvent or surfactant or cyclodextrin, 25% ethanol in water, read-out: Solubilized miconazole ± S.D.) of 0.021 ± 0.01 mg/mL (≈ 50.5 µM), a solubility ([2]; 30% glycerol in water, aqueous with cosolvent or surfactant or cyclodextrin, 30% glycerol in water, read-out: Solubilized miconazole ± S.D.) of 0.024 ± 0.006 mg/mL (≈ 57.7 µM) and a solubility ([2]; 30% macrogol 400 in water, aqueous with cosolvent or surfactant or cyclodextrin, 30% macrogol 400 in water, read-out: Solubilized miconazole ± S.D.) of 0.022 ± 0.008 mg/mL (≈ 52.9 µM). The solubility ([2]; 60% propylene glycol in water, aqueous with cosolvent or surfactant or cyclodextrin, 60% propylene glycol in water, read-out: Solubilized miconazole ± S.D.) was 0.36 ± 0.12 mg/mL (≈ 865 µM), the “Solubilized miconazole / ketoconazole / itraconazole ± S.D.” value [2] was 38.38 ± 1.53 mg/mL and the solubility [2, 5] was 34.8 ± 2.36 mg/mL. For the same molecule, the solubility [2, 6] was 32.1 ± 2.86 mg/mL, the solubility [2, 7] was 22 ± 1.62 mg/mL and the solubility [2, 8] was 10.7 ± 0.69 mg/mL. For the same molecule, the “Concentration of polysorbate 80 necessary to keep miconazole in solution on dilution” value (shortened to “Concentration”) ([3]; 10 mg/ml miconazole in composition) was 0.1%^, the “Concentration” value ([3]; 20 mg/ml miconazole in composition) was 3% and the “Concentration” value ([3]; 30 mg/ml miconazole in composition) was 3%. The “Stability of diluted composition” value ([3]; 10 ml of 0.1% polysorbate 80, 20% ethanol, ammonium acetate pH 3.1 containing 20 mg/ml miconazole, diluted to 200 ml with 5% dextrose or 0.9% sodium chloride infusion) was “not stable for 48 hours”.

In the case of `CC(=O)N1CCN(c2ccc(OCC3COC(Cn4ccnc4)(c4ccc(Cl)cc4Cl)O3)cc2)CC1` (centres unmarked) [ketoconazole], the solubility [2, 4] is reported as 139 ± 4.05 mg/mL, the “Solubility in the compositions” value [2] is reported as “best solubility” and the “Solubilized miconazole / ketoconazole / itraconazole ± S.D.” value [2] is reported as 126.54 ± 1.04 mg/mL. For the same molecule, the solubility [2, 5] was 142 ± 2.85 mg/mL, the solubility [2, 6] was 137 ± 8.15 mg/mL and the solubility [2, 7] was 140 ± 3.99 mg/mL. It also gave a solubility [2, 8] of 124.7 ± 1.16 mg/mL.
